19 molecules from patent US11866430B2, “Naphthyridinone compounds useful as T cell activators” (priority 2018, dated 2024) can be followed below.

Each structure is given as a SMILES string. pIC50: −log10 of the molar value.

The target in experiment [1] is T1, human DGKα (Homo sapiens (Human), UniProt P23743). The experiment can be described thus: DGKα LIPGLO assay (extruded liposome substrate). It counts as biochemical. An outline of the steps: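 Human full-length DGKα, His-tagged and produced in Sf9 cells, assayed at 20 nM (4× stock) on extruded liposomes of PS, 0.25 mM DAG and 2.75 mM PC, preincubated 10 min. Reaction started with 300 μM ATP (stock) and ran 1 h in MOPS pH 7.5/MgCl2/CaCl2/DTT buffer.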
T1 sequence (P23743 other isoform, or with tags, fused parts or gaps): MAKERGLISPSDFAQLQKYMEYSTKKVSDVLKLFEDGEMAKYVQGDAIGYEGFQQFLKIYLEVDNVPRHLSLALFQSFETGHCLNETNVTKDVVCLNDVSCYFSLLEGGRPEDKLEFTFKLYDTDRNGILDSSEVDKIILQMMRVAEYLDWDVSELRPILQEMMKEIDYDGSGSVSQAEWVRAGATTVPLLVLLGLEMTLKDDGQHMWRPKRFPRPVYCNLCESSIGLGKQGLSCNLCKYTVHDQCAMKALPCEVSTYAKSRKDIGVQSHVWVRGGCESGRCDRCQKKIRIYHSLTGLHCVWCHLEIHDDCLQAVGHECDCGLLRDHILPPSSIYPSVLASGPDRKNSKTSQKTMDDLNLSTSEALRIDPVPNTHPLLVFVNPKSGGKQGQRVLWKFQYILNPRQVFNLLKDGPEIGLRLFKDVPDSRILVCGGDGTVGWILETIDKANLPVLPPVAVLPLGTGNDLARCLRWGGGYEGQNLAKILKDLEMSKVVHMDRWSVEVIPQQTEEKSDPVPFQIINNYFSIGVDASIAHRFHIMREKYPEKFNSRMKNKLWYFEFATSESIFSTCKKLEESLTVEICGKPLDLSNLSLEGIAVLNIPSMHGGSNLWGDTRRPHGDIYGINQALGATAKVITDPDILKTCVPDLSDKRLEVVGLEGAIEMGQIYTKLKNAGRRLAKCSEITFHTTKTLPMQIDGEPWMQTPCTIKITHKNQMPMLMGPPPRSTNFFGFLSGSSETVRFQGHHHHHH

Experiment [2] has as its target T2, human DGKζ (Homo sapiens (Human), UniProt Q13574). The experiment can be described thus: DGKζ LIPGLO assay (extruded liposome substrate). It counts as biochemical. The note with it: extruded liposome substrate; read-out: DGKζ LIPGLO IC50. Summed up:
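Sf9-derived DGKζ was premixed 10 min with PC/DAG/PS liposomes (100 nm extruded) in MOPS pH 7.5 buffer containing NaCl, MgCl2, CaCl2 and DTT.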

Experiment [3] addresses T1, human DGKα. Put plainly: biochemical. The following applies: detergent/lipid micelle substrate; read-out: DGKα IC50. An outline of the steps: (§1)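 Full-length human DGKα or DGKζ (C-terminal His tag, Sf9-expressed; 20 nM 4× stock) was preincubated 10 min at room temperature with PS/DAG octyl glucoside micelles in MOPS pH 7.5 buffer with MgCl2, CaCl2 and DTT. It was then started with ATP (300 uM addition) and run for 1 hr, with ADP-Glo luminescence read-out.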

The target of experiment [4] is T2, human DGKζ. The experiment can be described thus: DGKζ assay (detergent/lipid micelle substrate). It counts as biochemical. The following applies: detergent/lipid micelle substrate; read-out: DGKζ IC50. Summed up:
as §1

Experiment [5] relates to pre-activated CD4 T cells and Raji cells. Put plainly: Raji CD4 T Cell IL2 Assay. The note with it: Homo sapiens, Raji. It counts as cell-based.

For orientation: pIC50 means −log10 of the IC50, conventionally taken in molar units.

T2 sequence (Q13574 other isoform, or with tags, fused parts or gaps): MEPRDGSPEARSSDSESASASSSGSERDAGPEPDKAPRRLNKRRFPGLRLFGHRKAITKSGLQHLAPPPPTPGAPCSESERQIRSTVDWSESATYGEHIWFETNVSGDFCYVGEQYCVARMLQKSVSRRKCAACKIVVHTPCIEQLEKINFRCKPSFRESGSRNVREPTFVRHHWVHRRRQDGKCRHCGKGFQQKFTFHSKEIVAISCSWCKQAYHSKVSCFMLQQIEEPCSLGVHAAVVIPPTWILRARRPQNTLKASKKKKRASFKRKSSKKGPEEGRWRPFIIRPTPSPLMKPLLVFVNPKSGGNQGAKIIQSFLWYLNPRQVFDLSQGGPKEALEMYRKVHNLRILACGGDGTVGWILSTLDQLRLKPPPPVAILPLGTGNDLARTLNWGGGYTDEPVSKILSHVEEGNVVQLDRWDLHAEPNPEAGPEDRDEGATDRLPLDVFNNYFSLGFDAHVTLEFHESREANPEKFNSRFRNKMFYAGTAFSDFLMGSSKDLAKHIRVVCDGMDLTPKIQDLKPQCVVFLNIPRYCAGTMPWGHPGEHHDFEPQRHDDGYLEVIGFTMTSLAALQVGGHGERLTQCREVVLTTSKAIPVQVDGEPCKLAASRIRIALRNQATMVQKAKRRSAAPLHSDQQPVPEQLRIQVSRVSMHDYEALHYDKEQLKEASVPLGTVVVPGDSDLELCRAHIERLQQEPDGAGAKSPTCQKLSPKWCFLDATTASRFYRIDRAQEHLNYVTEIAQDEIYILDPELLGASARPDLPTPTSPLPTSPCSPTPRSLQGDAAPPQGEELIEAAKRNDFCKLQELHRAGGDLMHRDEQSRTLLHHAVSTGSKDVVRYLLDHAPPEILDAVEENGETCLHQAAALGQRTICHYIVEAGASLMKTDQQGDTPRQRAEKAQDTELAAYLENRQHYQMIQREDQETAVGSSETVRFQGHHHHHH

As for `Cc1cccc(O)c1CN1CCN(c2c(C#N)c(=O)n(C)c3ccc(Br)nc23)CC1` [Example 259, 6-bromo-4-{4-[(2-hydroxy-6-methylphenyl)methyl]piperazin-yl}-1-methyl-2-oxo-1,2-dihydro-1,5-naphthyridine-3-carbonitrile], the pIC50 in experiment [1] was 6.31; in experiment [2], 5.40; in experiment [3], 6.38; in experiment [4], 4.26; in experiment [5] it was 7.80.
Turning to `Cn1c(=O)c(C#N)c(N2CCN(Cc3ccc(C(C)(C)C)cc3O)CC2)c2nc(Cl)ccc21` [Example 261, 4-{4-[(4-tert-butyl-2-hydroxyphenyl)methyl]piperazin-1-yl}-6-chloro-1-methyl-2-oxo-1,2-dihydro-1,5-naphthyridine-3-carbonitrile], the pIC50 in experiment [1] was 6.15; in experiment [2] it was 5.00; in experiment [3], 6.37; in experiment [4], below 3.62; in experiment [5], 7.68.
As for `Cn1c(=O)c(C#N)c(N2CCN(Cc3ccc(Br)cc3O)CC2)c2nc(C#N)ccc21` [Example 263, 8-{4-[(4-bromo-2-hydroxyphenyl)methyl]piperazin-1-yl}-5-methyl-6-oxo-5,6-dihydro-1,5-naphthyridine-2,7-dicarbonitrile], the pIC50 was 6.66 in experiment [1]; 5.28 in experiment [2]; 7.08 in experiment [3]; 4.85 in experiment [4]; 7.46 in experiment [5].
As to `Cn1c(=O)c(C#N)c(N2CCN(Cc3ccc(Cl)cc3O)CC2)c2nc(C#N)ccc21` [Example 269, 8-{4-[(4-chloro-2-hydroxyphenyl)methyl]piperazin-1-yl}-5-methyl-6-oxo-5,6-dihydro-1,5-naphthyridine-2,7-dicarbonitrile], the negative-log IC50 (pIC50) in experiment [1] is 6.68; in experiment [2], 5.55; in experiment [3] it was 7.28; in experiment [4] it was 4.59; in experiment [5], 7.24.
Take `Cn1c(=O)c(C#N)c(N2CCN(Cc3ccccc3Cl)CC2)c2nc(Cl)ccc21` [Example 272, 6-chloro-4-{4-[(2-chlorophenyl)methyl]piperazin-1-yl}-1-methyl-2-oxo-1,2-dihydro-1,5-naphthyridine-3-carbonitrile]: the pIC50 is 5.64 in experiment [1]; 5.00 in experiment [2]; 5.82 in experiment [3]; below 3.62 in experiment [4]; 7.19 in experiment [5].
Regarding `Cc1ccc(CN2CCN(c3c(C#N)c(=O)n(C)c4ccc(Cl)nc34)CC2)c(O)c1` [Example 273, 6-chloro-4-{4-[(2-hydroxy-4-methylphenyl)methyl]piperazin-1-yl}-1-methyl-2-oxo-1,2-dihydro-1,5-naphthyridine-3-carbonitrile], the pIC50 was 7.09 in experiment [1]; 5.11 in experiment [2]; 7.74 in experiment [3]; 4.16 in experiment [4]; 7.19 in experiment [5].
In the same order, the values of `COc1c(F)cccc1CN1CCN(c2c(C#N)c(=O)n(C)c3ccc(Cl)nc23)CC1` [Example 274, 6-chloro-4-{4-[(3-fluoro-2-methoxyphenyl)methyl]piperazin-1-yl}-1-methyl-2-oxo-1,2-dihydro-1,5-naphthyridine-3-carbonitrile] are 5.80, 5.27, 6.17, 4.52 and 7.14.
`Cn1c(=O)c(C#N)c(N2CCN(Cc3cc(Br)ccc3O)CC2)c2nc(Cl)ccc21` [Example 275, 4-{4-[(5-bromo-2-hydroxyphenyl)methyl]piperazin-1-yl}-6-chloro-1-methyl-2-oxo-1,2-dihydro-1,5-naphthyridine-3-carbonitrile]: the pIC50 in experiment [1] was 6.11; in experiment [2] it was 5.00; in experiment [3], 6.52; in experiment [4] it was 4.24; in experiment [5] it was 7.14.
Turning to `Cc1ccc2c(n1)c(N1CCN(Cc3cc(Br)ccc3O)CC1)c(C#N)c(=O)n2C` [Example 277, 4-{4-[(5-bromo-2-hydroxyphenyl)methyl]piperazin-1-yl}-1,6-dimethyl-2-oxo-1,2-dihydro-1,5-naphthyridine-3-carbonitrile], the pIC50 in experiment [1] was 5.77; in experiment [2] it was 4.89; in experiment [3], 6.12; in experiment [4], 4.35; in experiment [5], 7.10.
On to `COc1ccc(CN2CCN(c3c(C#N)c(=O)n(C)c4ccc(Cl)nc34)CC2)cc1F` [Example 279, 6-chloro-4-{4-[(3-fluoro-4-methoxyphenyl)methyl]piperazin-1-yl}-1-methyl-2-oxo-1,2-dihydro-1,5-naphthyridine-3-carbonitrile], for which the pIC50 is 6.09 in experiment [1]; 5.24 in experiment [2]; 6.42 in experiment [3]; 4.25 in experiment [4]; 7.04 in experiment [5].
`Cc1cccc(CN2CCN(c3c(C#N)c(=O)n(C)c4ccc(Cl)nc34)CC2)c1F` [Example 281, 6-chloro-4-{4-[(2-fluoro-3-methylphenyl)methyl]piperazin-1-yl}-1-methyl-2-oxo-1,2-dihydro-1,5-naphthyridine-3-carbonitrile]: the pIC50 was 5.70 in experiment [1]; 5.00 in experiment [2]; 6.41 in experiment [3]; 4.31 in experiment [4]; 7.03 in experiment [5].
Consider `Cc1ccc(O)c(CN2CCN(c3c(C#N)c(=O)n(C)c4ccc(Cl)nc34)CC2)c1` [Example 283, 6-chloro-4-{4-[(2-hydroxy-5-methylphenyl)methyl]piperazin-1-yl}-1-methyl-2-oxo-1,2-dihydro-1,5-naphthyridine-3-carbonitrile], for which the negative-log IC50 (pIC50) is 6.68 in experiment [1]; 5.52 in experiment [2]; 6.92 in experiment [3]; 4.57 in experiment [4]; 7.03 in experiment [5].
For the molecule `Cn1c(=O)c(C#N)c(N2CCN(Cc3ccc(F)cc3Cl)CC2)c2nc(Cl)ccc21` [Example 287, 6-chloro-4-{4-[(2-chloro-4-fluorophenyl)methyl]piperazin-1-yl}-1-methyl-2-oxo-1,2-dihydro-1,5-naphthyridine-3-carbonitrile], the pIC50 in experiment [1] is 4.74; in experiment [2], 4.54; in experiment [3] it was 5.68; in experiment [4], below 3.62; in experiment [5], 7.00.
As to `Cn1c(=O)c(C#N)c(N2CCN(Cc3ccc(Cl)cc3O)CC2)c2nc(Cl)ccc21` [Example 288, 6-chloro-4-{4-[(4-chloro-2-hydroxyphenyl)methyl]piperazin-1-yl}-methyl-2-oxo-1,2-dihydro-1,5-naphthyridine-3-carbonitrile], the pIC50 is 7.48 in experiment [1]; 5.64 in experiment [2]; 7.43 in experiment [3]; below 3.62 in experiment [4]; 7.00 in experiment [5].
On to `Cc1cccc(O)c1CN1CCN(c2c(C#N)c(=O)n(C)c3ccc(Cl)nc23)CC1` [Example 292, 6-chloro-4-{4-[(2-hydroxy-6-methylphenyl)methyl]piperazin-1-yl}-1-methyl-2-oxo-1,2-dihydro-1,5-naphthyridine-3-carbonitrile], for which the pIC50 is 6.32 in experiment [1]; 5.62 in experiment [2]; 6.57 in experiment [3]; 4.60 in experiment [4]; 6.96 in experiment [5].
Consider `Cn1c(=O)c(C#N)c(N2CCN(Cc3cccc(Cl)c3O)CC2)c2nc(Cl)ccc21` [Example 293, 6-chloro-4-{4-[(3-chloro-2-hydroxyphenyl)methyl]piperazin-1-yl}-1-methyl-2-oxo-1,2-dihydro-1,5-naphthyridine-3-carbonitrile], for which the pIC50 in experiment [1] was 6.22; in experiment [2] it was 5.22; in experiment [3], 6.57; in experiment [4], 4.24; in experiment [5] it was 6.96.
In the same order, the values of `COc1ccc(CN2CCN(c3c(C#N)c(=O)n(C)c4ccc(Br)nc34)CC2)c(O)c1` [Example 295, 6-bromo-4-{4-[(2-hydroxy-4-methoxyphenyl)methyl]piperazin-1-yl}-1-methy-2-oxo-1,2-dihydro-1,5-naphthyridine-3-carbonitrile] are 6.80, 5.16, 6.89, 4.26 and 6.85.
Regarding `Cn1c(=O)c(C#N)c(N2CCN(Cc3ccccc3Cl)CC2)c2nc(Br)ccc21` [Example 300, 6-bromo-4-{4-[(2-chlorophenyl)methyl]piperazin-1-yl}-1-methyl-2-oxo-1,2-dihydro-1,5-naphthyridine-3-carbonitrile], the negative-log IC50 (pIC50) in experiment [1] was 4.62; in experiment [2], 4.01; in experiment [3], 5.70; in experiment [4], below 3.62; in experiment [5], 6.80.
As to `Cn1c(=O)c(C#N)c(N2CCN(Cc3cccc(F)c3O)CC2)c2nc(Br)ccc21` [Example 304, 6-bromo-4-{4-[(3-fluoro-2-hydroxyphenyl)methyl]piperazin-1-yl}-1-methyl-2-oxo-1,2-dihydro-1,5-naphthyridine-3-carbonitrile], the pIC50 in experiment [1] is 6.21; in experiment [2], 5.24; in experiment [3], 6.48; in experiment [4], 4.17; in experiment [5] it was 6.72.
